In patent US9289444B2, “Composition for promoting hematogenesis containing quercetin 3-O-β-(2″-galloyl)-rhamnopyranoside as active ingredient” (Chungbuk National University Industry Academic Cooperation …, priority 2011, dated 2016):

Assays:
[1] = test system: bone marrow failure mouse induced by busulphan (BU); assay: Colony-forming unit-fibroblast (CFU-F) measurement from MSPCs in BU bone marrow failure model; assay type: in vivo, Balb/c mice; conditions: decreased from day 10 in positive control group; p<0.05
Description: Bone marrow failure model induced by administering busulphan (BU) was designed according to the procedures previously described by Molyneux et al (Cell Biol Toxicol 27, 13-40, 2011) and the scheme is shown in FIG. 8. BU (Sigma chemicals, Poole, Dorset, UK) was dissolved in acetone to a final concentration of 18.8 mg/ml, diluted five-fold with distilled water, and was intraperitoneally administered three times for 5 days with the dose of 0.2 ml BU solution per mouse. Equal amount of five-fold diluted acetone solution without BU was administered to vehicle control group. QGR was dissolved in dimethylsulfoxide and diluted with distilled water to a final concentration of 1.25%. Mice were orally administered every two days with QGR (0.25 mg/mouse) for 63 days. […]
CFU-F, a progenitor cell colony differentiated from MSPCs is in the stage prior to being finally matured into mesenchymal cells such as osteoblast, vascular endothelial cells acting as hematopoietic stem cell niche. In order to investigate the effect of QGR on the formation and differentiation of mesenchymal stem cells, MSPCs were isolated and the number of CFU-F colonies of the respective groups was measured and compared to each other. […] All visible colonies were counted.

[2] = test system: unopsonized zymosan-stimulated human monocytes; conditions: cited from earlier work
BMNCs = assay: Histochemistry (Wright-Giemsa) and immunocytochemistry for erythroid cells (TER-119); assay type: cell-based, mouse; conditions: 7 days culture
Description: In order to investigate whether QGR can stimulate the differentiation of hematopoietic stem cells into erythroid cells, the morphology of cells was observed and immunocytochemistry against TER-119, the marker of erythroid progenitors, was carried out. BMNCs were harvested 7 days after incubation with either rEpo (3 units/ml) or QGR (100 or 200 μM/ml) washed with PBS, re-suspended at a concentration of 2×10^5 cells/ml in PBS and subjected (100 μl/slide) to cytospin for 5 min at 1,000 rpm (Cytospin3; Shandon, ThermoElectron, Waltham, Mass., USA). All slides were fixed using cold methanol. Wright-Giemsa stain was performed for morphologic analysis. Immunocytochemistry against TER-119 was carried out for cellular lineage with 100-fold dilution according to the manufacturer's instruction using avidin biotinylated enzyme complex kit (VECTASTAIN, Vector Laboratories and Burlingame, Calif., USA).

For `CC1OC(Oc2c(-c3ccc(O)c(O)c3)oc3cc(O)cc(O)c3c2=O)C(OC(=O)c2cc(O)c(O)c(O)c2)C(O)C1O` (stereo not drawn) [QGR, quercetin 3-O-β-(2″-galloyl)-rhamnopyranoside], the “number of CFU-F” value [1] is listed as “recovered significantly”, the superoxide production [2] is listed as “inhibiting” and the “number of enucleated erythroid cells” value (BMNCs; Wright-Giemsa staining) is listed as “increased”. For the same molecule, the “TER-119+ cells (immunocytochemical analysis)” value (BMNCs; vs negative control) was “increased”.
